Measured values published in PubChem BioAssay AID256 (DTP/NCI, 2004).
“And” between values parts separate entries of the source, which are not always exact repeats. Equal entries are not always repeated. Toxic doses and inconclusive results are not listed. The calls were made as follows: active = survival T/C of 150% or more; inactive = T/C below 125% in these data.

Tested on: CD2F1 mice, L1210 leukemia ip, survival T/C
Test: NCI In Vivo Anticancer Drug Screen. Data for tumor model L1210 Leukemia (intraperitoneal) in CD2F1 (CDF1) mice
Conditions: endpoint: mean survival time, higher = longer survival
How it was run: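 Mice carrying a transplanted tumor received test compound or vehicle alone. The value is the measurement in the treated group divided by that in the vehicle-treated control group.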

[1] = dose: 25.0 mg/kg/injection, schedule: Q01DX009 (ip), vehicle: saline with Tween-80
[2] = dose: 50.0 mg/kg/injection, schedule: Q01DX009 (ip), vehicle: saline with Tween-80
[3] = dose: 100.0 mg/kg/injection, schedule: Q01DX009 (ip), vehicle: saline with Tween-80
[4] = dose: 100.0 mg/kg/injection, schedule: Q01DX001 (ip), vehicle: saline with Tween-80
[5] = dose: 200.0 mg/kg/injection, schedule: Q01DX001 (ip), vehicle: saline with Tween-80
[6] = dose: 400.0 mg/kg/injection, schedule: Q01DX001 (ip), vehicle: saline with Tween-80
[7] = dose: 100.0 mg/kg/injection, schedule: Q04DX002 (ip), vehicle: saline with Tween-80
[8] = dose: 200.0 mg/kg/injection, schedule: Q04DX002 (ip), vehicle: saline with Tween-80
[9] = dose: 400.0 mg/kg/injection, schedule: Q04DX002 (ip), vehicle: saline with Tween-80
[10] = dose: 200.0 mg/kg/injection, schedule: Q01DX009 (ip), vehicle: saline with Tween-80
[11] = dose: 400.0 mg/kg/injection, schedule: Q01DX009 (ip), vehicle: saline with Tween-80
[12] = dose: 75.0 mg/kg/injection, schedule: Q01DX001 (ip), vehicle: saline
[13] = dose: 150.0 mg/kg/injection, schedule: Q01DX001 (ip), vehicle: saline
[14] = dose: 300.0 mg/kg/injection, schedule: Q01DX001 (ip), vehicle: saline
[15] = dose: 100.0 mg/kg/injection, schedule: Q04DX003 (ip), vehicle: saline with Tween-80
[16] = dose: 200.0 mg/kg/injection, schedule: Q04DX003 (ip), vehicle: saline with Tween-80
[17] = dose: 25.0 mg/kg/injection, schedule: Q01DX009 (ip), vehicle: Klucel (hydroxypropylcellulose) (HPC)
[18] = dose: 50.0 mg/kg/injection, schedule: Q01DX009 (ip), vehicle: Klucel (hydroxypropylcellulose) (HPC)
[19] = dose: 3.12 mg/kg/injection, schedule: Q01DX009 (ip), vehicle: Klucel (hydroxypropylcellulose) (HPC)
[20] = dose: 6.25 mg/kg/injection, schedule: Q01DX009 (ip), vehicle: Klucel (hydroxypropylcellulose) (HPC)
[21] = dose: 12.5 mg/kg/injection, schedule: Q01DX009 (ip), vehicle: Klucel (hydroxypropylcellulose) (HPC)

Measured: T/C

Nc1nc(=O)n(C2OC(CO)C(O)C2O)c2nc[nH]c12 (stereo unspecified)
inactive: dose: 6.25 mg/kg/injection, schedule: Q01DX005 (ip), vehicle: water 98 % of control | dose: 12.5 mg/kg/injection, schedule: Q01DX005 (ip), vehicle: water 90 % of control | dose: 25.0 mg/kg/injection, schedule: Q01DX005 (ip), vehicle: water 88 % of control | dose: 50.0 mg/kg/injection, schedule: Q01DX005 (ip), vehicle: water 92 % of control and 93 % of control | dose: 100.0 mg/kg/injection, schedule: Q01DX005 (ip), vehicle: water 87 % of control and 90 % of control

CCCCN1CCN(CCCC)C1CCC
inactive: [1] 98 % of control | [2] 102 % of control | [3] 96 % of control

CN1CCCC1CCNc1nc(-c2ccc(C(Cl)(Cl)Cl)cc2)nc(C(Cl)(Cl)Cl)n1 (stereo unspecified)
inactive: [4] 95 % of control | [3] 95 % of control | [5] 95 % of control | [6] 94 % of control

c1ccc2sc(SCCSc3nc4ccccc4s3)nc2c1
inactive: dose: 25.0 mg/kg/injection, schedule: Q04DX002 (ip), vehicle: saline with Tween-80 107 % of control | [7] 88 % of control | [8] 87 % of control | [9] 87 % of control

COC(=O)C1OC(OC(C)=O)C(OC(C)=O)C(OC(C)=O)C1C(=O)OC (stereo unspecified)
inactive: [4] 93 % of control | [3] 101 % of control | [5] 95 % of control | [10] 105 % of control | [6] 93 % of control | [11] 105 % of control

CC(=O)C(c1ccccc1)N(C)C(=O)c1ccccc1 (stereo unspecified)
inactive: dose: 100.0 mg/kg/injection, schedule: Q01DX009 (ip), vehicle: saline 95 % of control | dose: 200.0 mg/kg/injection, schedule: Q01DX009 (ip), vehicle: saline 94 % of control | dose: 400.0 mg/kg/injection, schedule: Q01DX009 (ip), vehicle: saline 104 % of control

CCOC(=O)C(C)(C)C(OP(=O)(OCC)OCC)=C(C)C
inactive: [12] 103 % of control | [13] 97 % of control | [14] 100 % of control

O=C(NC1c2ccccc2-c2ccccc21)C(F)(F)F
inactive: [3] 96 % of control | [15] 99 % of control | [10] 97 % of control | [16] 99 % of control | [11] 100 % of control | dose: 400.0 mg/kg/injection, schedule: Q04DX003 (ip), vehicle: saline with Tween-80 97 % of control

CCOC(=O)C(C)C(=O)NCc1ccccc1 (stereo unspecified)
inactive: [17] 95 % of control | [18] 96 % of control | dose: 100.0 mg/kg/injection, schedule: Q01DX009 (ip), vehicle: Klucel (hydroxypropylcellulose) (HPC) 96 % of control | dose: 200.0 mg/kg/injection, schedule: Q01DX009 (ip), vehicle: Klucel (hydroxypropylcellulose) (HPC) 93 % of control | dose: 400.0 mg/kg/injection, schedule: Q01DX009 (ip), vehicle: Klucel (hydroxypropylcellulose) (HPC) 98 % of control

CCC1CCC(NC(=O)NC)CC1 (stereo unspecified)
inactive: [15] 99 % of control | [16] 92 % of control

Cn1c(=O)c2c(nc(NCCOC(=S)S)n2C)n(C)c1=O
inactive: dose: 12.5 mg/kg/injection, schedule: Q01DX005 (ip), vehicle: distilled water + Tween-80 94 % of control | dose: 25.0 mg/kg/injection, schedule: Q01DX005 (ip), vehicle: distilled water + Tween-80 91 % of control | dose: 50.0 mg/kg/injection, schedule: Q01DX005 (ip), vehicle: distilled water + Tween-80 100 % of control

COc1cc2c(c(OC)c1OC)-c1ccc(SCc3ccccc3)c(=O)cc1[C@@H](NC(C)=O)CC2
inactive: dose: 1.56 mg/kg/injection, schedule: Q01DX009 (ip), vehicle: Klucel (hydroxypropylcellulose) (HPC) 103 % of control | [19] 97 % of control | [20] 112 % of control | [21] 121 % of control | [17] 117 % of control

O=C/C=C/C=O
inactive: dose: 3.13 mg/kg/injection, schedule: Q01DX001 (ip), vehicle: suspension in saline 98 % of control | dose: 6.25 mg/kg/injection, schedule: Q01DX001 (ip), vehicle: saline with Tween-80 106 % of control | dose: 6.25 mg/kg/injection, schedule: Q01DX001 (ip), vehicle: suspension in saline 104 % of control | dose: 12.5 mg/kg/injection, schedule: Q01DX001 (ip), vehicle: saline with Tween-80 122 % of control | dose: 12.5 mg/kg/injection, schedule: Q01DX001 (ip), vehicle: suspension in saline 101 % of control | dose: 25.0 mg/kg/injection, schedule: Q01DX001 (ip), vehicle: suspension in saline 101 % of control

CC(N)CCc1ccccc1 (stereo unspecified)
inactive: dose: 12.5 mg/kg/injection, schedule: Q01DX009 (ip), vehicle: saline with Tween-80 102 % of control | [1] 100 % of control | [2] 102 % of control

Oc1ccccc1Br
inactive: dose: 100.0 mg/kg/injection, schedule: Q01DX001 (ip), vehicle: saline 96 % of control | dose: 200.0 mg/kg/injection, schedule: Q01DX001 (ip), vehicle: saline 93 % of control

CCCCCCCCC1C(CCCCCCCC(=O)N2CCCC2)C2(Cl)C(Cl)=C(Cl)C1(Cl)C2(Cl)Cl (stereo unspecified)
inactive: [12] 98 % of control | [13] 104 % of control | [14] 96 % of control

Cc1cc(O)c(C)c(C)c1Cl
inactive: [2] 102 % of control | [3] 104 % of control | [15] 94 % of control | [10] 91 % of control | [16] 98 % of control

NC(=S)N/N=C/c1ccc2c(c1)OCO2
inactive: [2] 98 % of control | [3] 110 % of control | [10] 98 % of control

C[Si](C)(C)Oc1ccc(OCc2ccccc2)cc1
inactive: dose: 50.0 mg/kg/injection, schedule: Q04DX002 (ip), vehicle: saline with Tween-80 87 % of control | [7] 87 % of control | [8] 95 % of control | [9] 95 % of control

O=[Se](O)O.[NH-]C1CCCCC1[NH-].[Pt+2] (stereo unspecified)
inactive: dose: 1.0 mg/kg/injection, schedule: Q04DX003 (ip), vehicle: dextrose 124 % of control

Nc1ccc2oc(=O)c(C(=O)O)cc2c1
inactive: [4] 93 % of control | [5] 89 % of control

Cc1cc(N(CCOS(C)(=O)=O)CCOS(C)(=O)=O)ccc1N=Nc1ccccc1
inactive: [19] 106 % of control | [20] 113 % of control | [21] 114 % of control and 124 % of control | [17] 101 % of control | [18] 95 % of control

C=C(Br)CNC(=O)CCCl
inactive: dose: 1.56 mg/kg/injection, schedule: Q01DX009 (ip), vehicle: other 102 % of control | dose: 3.13 mg/kg/injection, schedule: Q01DX009 (ip), vehicle: other 103 % of control | dose: 6.25 mg/kg/injection, schedule: Q01DX009 (ip), vehicle: other 100 % of control | dose: 6.25 mg/kg/injection, schedule: Q04DX003 (ip), vehicle: other 103 % of control | dose: 12.5 mg/kg/injection, schedule: Q04DX003 (ip), vehicle: other 100 % of control | dose: 25.0 mg/kg/injection, schedule: Q04DX003 (ip), vehicle: other 105 % of control

CC(=O)OCC1OC(n2cnc3c(Cl)ncnc32)C(OC(C)=O)C1OC(C)=O (stereo unspecified)
inactive: dose: 12.5 mg/kg/injection, schedule: Q01DX005 (ip), vehicle: other 94 % of control | dose: 25.0 mg/kg/injection, schedule: Q01DX005 (ip), vehicle: other 88 % of control | dose: 50.0 mg/kg/injection, schedule: Q01DX005 (ip), vehicle: other 98 % of control | dose: 100.0 mg/kg/injection, schedule: Q01DX005 (ip), vehicle: other 96 % of control | dose: 200.0 mg/kg/injection, schedule: Q01DX005 (ip), vehicle: other 100 % of control | dose: 400.0 mg/kg/injection, schedule: Q01DX005 (ip), vehicle: other 102 % of control

CN1CCc2c3n(c4ccccc24)C(=O)CCC31 (stereo unspecified)
inactive: dose: 6.25 mg/kg/injection, schedule: Q04DX003 (ip), vehicle: saline sonified 101 % of control | dose: 12.5 mg/kg/injection, schedule: Q04DX003 (ip), vehicle: saline sonified 90 % of control | dose: 25.0 mg/kg/injection, schedule: Q04DX003 (ip), vehicle: saline sonified 97 % of control

CCc1ccc2ccccc2c1[N+](=O)[O-]
inactive: [4] 105 % of control | [5] 94 % of control | [6] 98 % of control
